Our source for the ring closure, yield of all isomers, Ki and EC50 values is patent US9617310B2 (priority 2013, dated 2017).

The conditions of data set [1]: from C=CCCC[C@@H]1[C@H]2C[C@H]2C[C@H]1OC(=O)N[C@H](C(=O)N1C[C@H](Oc2nc3cc(Cl)ccc3nc2C=C)C[C@H]1C(=O)OC)C(C)(C)C; rcm bond; Zhan Catalyst-1B; DCE; 4.97 mM; 83.0 °C; 0.67 h.
Data set [2] deals with T1, NS3 genotype 1b protease (Hepatitis C virus genotype 1b, UniProt Q9WMX2, E1202G).
T1 construct: Purified NS3 protease domain (amino acids 1-181) of the genotype 1b and 3a virus were generated as above; K3 hexahistidine tag (N); rTEV protease cleavage site (N); made in house; host or cells: E. coli BL21AI
Nature of the data set: Ki determination, NS3 protease genotype 1b (fluorogenic depsipeptide substrate). It counts as biochemical. To be noted: NS3 protease domain genotype 1b, NS4A peptide. The source says:
(§1) Ki Determination for Genotypes 1b and 3a NS3 Protease.
(§2) Purified NS3 protease domain (amino acids 1-181) of the genotype 1b and 3a virus were generated as above. The internally quenched fluorogenic depsipeptide substrate Ac-DED(Edans)-EEAbuψ[COO]ASK(Dabcyl)-NH2 and a synthetic peptide containing the hydrophobic core residues of the NS4A protein cofactor ([…]; NS4A peptide) were obtained from Anaspec, Inc. (San Jose, Calif.). Other chemicals and biochemicals were of reagent grade or better and were purchased from standard suppliers.
(§3) Reactions were run at room temperature in buffer consisting of 50 mM HEPES, 40% glycerol, 0.05% Triton X-100, 10 mM DTT, and 10% DMSO. The final assay solutions contained 50 pM NS3 genotype 1b protease or 200 pM genotype 3a protease, 20 μM NS4A peptide, and 4 μM substrate (genotype 1b) or 2 μM substrate (genotype 3a). Inhibitor concentrations varied from 100 nM to 5 pM in 3-fold dilutions, and no-inhibitor controls were included.
(§4) Compound dilutions were made in DMSO at 20× final concentration. Reaction mixtures were prepared in 96-well assay plates. A solution of enzyme and NS4A peptide in assay buffer (25 μL volume with both reagents at 4× final concentration) was mixed with 45 μL assay buffer and 5 μL of either inhibitor or DMSO, and pre-incubated at room temperature for 1 hour. The reaction was started by addition of 25 μL substrate solution at 4× final concentration. Plates were mixed vigorously for 5-10 seconds and reactions were allowed to proceed for 90 minutes. Fluorescence was measured every 30 s between 90 and 120 minutes reaction time using a Tecan InfiniTe M1000 or PerkinElmer Envision multimode plate reader with an excitation wavelength of 340 nm and an emission wavelength of 490 nm.
(§5) Rates were calculated from the progress curves at steady state, in the time frame of 90-120 minutes after addition of substrate. To determine the Ki, rates were plotted as a function of inhibitor concentration, and the data were fit with equation 1 (Morrison, J. F., Biochimica et Biophysica Acta 1969, 185, 269-286) to calculate Ki^app using GraphPad Prism 5. Active fraction of enzyme was determined by active site titration with known potent inhibitors. Ki was calculated from Ki^app/(1+[[S]/Km]).

Data set [3] deals with T2, NS3 genotype 3a protease (UniProt Q81258).
T2 construct: Purified NS3 protease domain (amino acids 1-181) of the genotype 1b and 3a virus were generated as above; fused on or other part: N-terminal hexahistidine tag with an rTEV protease cleavage site (vector p28-N6H-Tev-NS3(181)3)
T2 sequence (Q81258 1033-1663): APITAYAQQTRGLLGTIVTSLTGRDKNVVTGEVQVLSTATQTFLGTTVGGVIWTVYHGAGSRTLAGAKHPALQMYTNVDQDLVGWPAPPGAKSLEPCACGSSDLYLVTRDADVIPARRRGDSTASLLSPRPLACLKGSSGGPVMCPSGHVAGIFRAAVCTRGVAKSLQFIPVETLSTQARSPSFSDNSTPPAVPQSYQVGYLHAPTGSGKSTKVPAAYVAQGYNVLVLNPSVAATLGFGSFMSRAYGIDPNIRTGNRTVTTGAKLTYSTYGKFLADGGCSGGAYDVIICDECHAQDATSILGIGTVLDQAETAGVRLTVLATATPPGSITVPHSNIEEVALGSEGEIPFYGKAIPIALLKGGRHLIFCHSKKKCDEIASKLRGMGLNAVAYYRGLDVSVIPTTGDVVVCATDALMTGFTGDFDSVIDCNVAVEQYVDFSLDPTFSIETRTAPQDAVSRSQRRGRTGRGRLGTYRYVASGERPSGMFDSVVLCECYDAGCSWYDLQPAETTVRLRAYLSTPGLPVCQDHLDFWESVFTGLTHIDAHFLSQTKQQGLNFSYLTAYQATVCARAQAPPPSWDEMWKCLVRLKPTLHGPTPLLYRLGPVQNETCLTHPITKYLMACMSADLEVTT
Nature of the data set: Ki determination, NS3 protease genotype 3a (fluorogenic depsipeptide substrate). The class given is biochemical, hepatitis C virus. Particulars: NS3 protease domain genotype 3a, NS4A peptide.
Source text: as §1, §2, §3, §4, §5

Data set [4] deals with genotype 1a stable HCV replicon (H77) in Huh-7-derived cells. Nature of the data set: Stable subgenomic HCV replicon, genotype 1a, Renilla luciferase. It counts as cell-based. Particulars: Hepatitis C virus, stable replicon genotype 1a, 72 h, read-out: EC50 1A RLUC. Here is the method:
(§6) Antiviral potency (EC50) was determined in both stable subgenomic HCV replicon cell lines and transient-transfected HCV replicon cells. The term half maximal effective concentration (EC50) refers to the concentration of a drug which induces a response halfway between the baseline and maximum after the exposure time specified below.
(§7) Stable subgenomic HCV replicons for genotype 1a, 1b, 2a, 3a, and 4a were established in Huh-7-derived cells as described by Lohmann et al (Lohmann V, Korner F, Koch J, et al Replication of subgenomic hepatitis C virus RNAs in a hepatoma cell line. Science 1999; 285:119-3). Each stable cell line contains a bicistronic HCV replicon that encodes a humanized Renilla luciferase (hRLuc) reporter gene fused to a selectable neomycin-resistance gene, followed by an EMCV IRES and the NS3-NS5B coding region of HCV. […] Luciferase activity was measured as a marker for intracellular HCV replication levels.
(§8) The genotype 1a stable replicon was derived from the H77 HCV strain and contained adaptive mutations P1496L and S2204I. The genotype 1b stable replicon was derived from the Con1 HCV strain and contained adaptive mutations E1202G, T1280I, and K1846T. […] The genotype 3a stable replicon was derived from the S52 HCV strain and contained adaptive mutations P1121 L, A1198T and S2210I (equivalent to S2204I in genotype 1). The genotype 4a stable replicon was derived from the ED43 HCV strain and contained adaptive mutations Q1691R and S2204I. All replicon cell lines were propagated in Huh-7-derived cells and maintained in Dulbecco's modified Eagle's Medium (DMEM) supplemented with 10% fetal bovine serum (FBS) and 0.5 mg/ml G418.
(§9) To perform EC50 assays, cells from each HCV replicon were dispensed into 384-well plates. Compounds were dissolved in DMSO at a concentration of 10 mM and diluted in DMSO using an automated pipetting instrument. Three-fold serially diluted compounds were directly added to the cells using an automated instrument. DMSO was used as a negative (solvent; no inhibition) control, and a combination of three HCV inhibitors including a protease inhibitor; an NS5A inhibitor and a nucleoside inhibitor was used at concentrations >100×EC50 as a positive control (100% inhibition). Seventy-two hours later, cells were lysed and Renilla luciferase activity were quantified as recommended by the manufacturer (Promega-Madison, Wis.). Non-linear regression was performed to calculate […], values.
In general terms: In antiviral work, replicon cells carry a viral genome segment that copies itself.

Data set [5] relates to genotype 1b stable HCV replicon (Con1) in Huh-7-derived cells. The experiment in a line: Stable subgenomic HCV replicon, genotype 1b, Renilla luciferase. Particulars: Hepatitis C virus, stable replicon genotype 1b, 72 h, read-out: EC50 1B RLUC. It counts as cell-based. As to the method:
as §6, §7, §8, §9

In data set [6] the test system is genotype 2a stable HCV replicon (JFH-1) in Huh-7-derived cells. The experiment in a line: Stable subgenomic HCV replicon, genotype 2a, Renilla luciferase. The class given is cell-based. Particulars: Hepatitis C virus, stable replicon genotype 2a, 72 h, read-out: EC50 2A RLUC. As to the method:
as §6, §7, §8, §9

The test system of data set [7] is genotype 3a stable HCV replicon (S52) in Huh-7-derived cells. Nature of the data set: Stable subgenomic HCV replicon, genotype 3a, Renilla luciferase. To be noted: Hepatitis C virus, 72 h, read-out: EC50 3A RLUC. It counts as cell-based. As to the method:
as §6, §7, §8, §9

Data set [8] relates to genotype 4a stable HCV replicon (ED43) in Huh-7-derived cells. Nature of the data set: Stable subgenomic HCV replicon, genotype 4a, Renilla luciferase. It counts as cell-based. Particulars: Hepatitis C virus, 72 h, read-out: EC50 4A RLUC. As to the method:
as §6, §7, §8, §9

Usually Ki stands for a dissociation constant, usually derived from enzyme kinetics or from competition with a known ligand. The term EC50 denotes the concentration giving half of the maximal effect.

T1 sequence (Q9WMX2 1027-1207 E1202G, other chains not shown): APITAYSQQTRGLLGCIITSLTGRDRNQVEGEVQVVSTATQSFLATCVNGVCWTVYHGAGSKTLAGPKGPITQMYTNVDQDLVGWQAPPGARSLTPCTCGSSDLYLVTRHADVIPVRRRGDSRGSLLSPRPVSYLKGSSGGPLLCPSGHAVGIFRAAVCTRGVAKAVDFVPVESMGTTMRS

With `COC(=O)[C@@H]1C[C@@H]2CN1C(=O)[C@H](C(C)(C)C)NC(=O)O[C@@H]1C[C@@H]3C[C@@H]3[C@H]1CCCC=Cc1nc3ccc(Cl)cc3nc1O2`, the ring closure, yield of all isomers in data set [1] came out at 56.6%.
Regarding `COc1ccc2nc3c(nc2c1)O[C@@H]1C[C@@H](C(=O)N[C@]2(C(=O)NS(=O)(=O)C4CC4)C[C@H]2C(F)F)N(C1)C(=O)[C@H](C(C)(C)C)NC(=O)O[C@H]1[C@@H]2CC[C@@H](C2)[C@@H]1CCCCC3` [Example 6, (1S,4R,4aS,8S,11S,13R,25aS)-8-tert-butyl-N-[(1R,2R)-1-[(cyclopropylsulfonyl)carbamoyl]-2-(difluoromethyl)cyclopropyl]-17-methoxy-6,9-dioxo-2,3,4,4a,6,7,8,9,12,13,21,22,23,24,25,25a-hexadecahydro-1H,11H-1, 4:10,13-dimethanoquinoxalino[2,3-k][1,10,3,6]benzodioxadiazacyclononadecine-11-carboxamide], the Ki amounted to 0.01 nM in data set [2] and 1.2 nM in data set [3]. Further, the 50% effective concentration (EC50) in data set [4] was 723 nM; in data set [5], 581 nM; in data set [6], 294 nM; in data set [7], 3840 nM; in data set [8], 433 nM.
